Results as given in patent publication US20250255795A1, “CYCLIC PEROXIDE, OXIDATION REACTION PRODUCT, METHOD FOR PRODUCING OXIDATION REACTION PRODUCT, AND APPLICATIONS OF THESE” (MEDIPLUS PHARMA, INC., priority 2021, published 2025).

Experiments:
[1] = system: melanin in skin; test: whitening action, melanin measurement (Mexameter MX18) on half-face application; type: in vivo, human; conditions: inferred from loss of activity after heat treatment of ozonized glycerin
Experimental: Forty-eight healthy individuals (females, 41 years or older and 59 years or younger) participated as test subjects. The test subjects were well informed with description documents (including a consent form) in advance, and a written consent was acquired from each test subject.
For examination of the whitening action, a test product of Example 2-1A, a test product of Example 2-1B, a test product of Reference Example 2-1A, and a test product of Reference Example 2-1B were prepared.
The test subjects were divided into two groups below (24 test subjects in each group). Each test subject took two pushes (approximately 1 ml) of a test product on the hands and applied the test product to a specified half of the face after every face washing performed twice per day (morning and night). […]
Each test subject was subjected to quintuple melanin measurement for freckle sites in the left and right cheeks on the day of initiation of application of test products (week 0) and 4 weeks and 8 weeks after the initiation of application. […] In addition, the changes of melanin measurement values from those at the initiation of the test were determined. Statistical test was carried out with Student t-test, and cases with p<0.05 were determined to be significant differences. […]

[2] = biological target: T1, TRPM2 (Homo sapiens, UniProt O94759); test: TRP channel activation, intracellular Ca2+ in TRPM2 (expressing cells); type: cell-based
T1 construct: expressed in transfected cells
T1 sequence (O94759 whole entry): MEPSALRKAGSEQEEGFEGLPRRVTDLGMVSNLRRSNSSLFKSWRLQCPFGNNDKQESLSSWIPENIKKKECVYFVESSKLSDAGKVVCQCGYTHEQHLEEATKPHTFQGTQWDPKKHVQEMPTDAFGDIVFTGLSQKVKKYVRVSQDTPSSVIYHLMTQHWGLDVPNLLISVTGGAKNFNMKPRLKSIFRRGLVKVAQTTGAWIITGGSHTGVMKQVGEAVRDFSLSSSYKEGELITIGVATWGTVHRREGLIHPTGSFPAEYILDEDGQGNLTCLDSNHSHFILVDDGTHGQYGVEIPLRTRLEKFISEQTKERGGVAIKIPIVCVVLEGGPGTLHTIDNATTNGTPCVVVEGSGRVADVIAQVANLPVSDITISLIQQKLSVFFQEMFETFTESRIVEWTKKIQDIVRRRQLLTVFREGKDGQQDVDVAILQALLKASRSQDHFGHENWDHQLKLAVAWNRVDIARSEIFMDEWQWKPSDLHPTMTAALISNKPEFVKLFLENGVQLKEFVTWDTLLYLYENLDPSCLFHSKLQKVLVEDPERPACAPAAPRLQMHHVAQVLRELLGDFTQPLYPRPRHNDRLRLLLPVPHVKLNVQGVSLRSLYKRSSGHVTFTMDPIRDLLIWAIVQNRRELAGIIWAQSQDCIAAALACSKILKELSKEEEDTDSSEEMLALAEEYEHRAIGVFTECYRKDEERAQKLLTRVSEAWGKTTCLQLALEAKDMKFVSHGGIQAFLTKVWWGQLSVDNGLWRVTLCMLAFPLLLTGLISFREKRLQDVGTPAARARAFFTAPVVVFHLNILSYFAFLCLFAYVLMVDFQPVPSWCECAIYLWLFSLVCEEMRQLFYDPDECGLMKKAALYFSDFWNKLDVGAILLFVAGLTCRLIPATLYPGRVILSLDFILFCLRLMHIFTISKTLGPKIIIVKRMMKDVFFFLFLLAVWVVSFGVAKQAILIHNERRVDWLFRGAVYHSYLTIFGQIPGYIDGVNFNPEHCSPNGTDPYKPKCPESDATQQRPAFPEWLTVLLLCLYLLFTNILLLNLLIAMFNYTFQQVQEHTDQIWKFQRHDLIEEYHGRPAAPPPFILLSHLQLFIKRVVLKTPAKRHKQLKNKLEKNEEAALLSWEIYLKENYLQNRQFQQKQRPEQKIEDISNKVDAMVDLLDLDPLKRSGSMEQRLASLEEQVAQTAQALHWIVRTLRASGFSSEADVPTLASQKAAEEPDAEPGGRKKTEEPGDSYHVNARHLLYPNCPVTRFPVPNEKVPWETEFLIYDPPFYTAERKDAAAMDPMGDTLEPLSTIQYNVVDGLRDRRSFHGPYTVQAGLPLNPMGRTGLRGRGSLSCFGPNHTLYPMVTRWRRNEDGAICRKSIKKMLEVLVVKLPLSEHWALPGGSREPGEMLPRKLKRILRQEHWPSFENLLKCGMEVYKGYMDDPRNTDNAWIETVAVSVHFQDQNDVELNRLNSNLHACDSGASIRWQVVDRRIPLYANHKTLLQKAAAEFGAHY
Description: The TLC1 spot product produced in “(1) Production of Oxidation Reaction Product Containing Cyclic Peroxide According to the First Mode of the Present Invention” was directly used without separation (purification) to examine the TRP channel activation. Hereinafter, […]. Hereinafter, “OG” indicates a product formed by ozone-oxidizing glycerin with an oxygen generator (ozonized glycerin). In production of “OG”, the ozone oxidation of glycerin with an oxygen generator was performed with use of a gas having an ozone concentration of approximately 37000 ppm, which had been obtained through a process in which a high concentration of oxygen (oxygen concentration: 70% or more) was given to air with an oxygen generator and the oxygen was ozonized via an ozone generator, under Conditions A below. Hereinafter, “LOG” indicates a product formed by further oxidizing “OG”. Production of “LOG” by oxidation of “OG” was performed with use of a gas having an ozone concentration of approximately 37000 ppm, which had been obtained through a process in which oxygen from an oxygen tank (oxygen concentration: 99% or more) was ozonized via an ozone generator, under Conditions B below. […]

[3] = positive control, known activity; cited from earlier work
[4] = general statement; cited from earlier work

OCC(O)C1OOCOCC1O (single isomer, unassigned) [compound of the chemical formula (1)]
whitening action (inferred active ingredient) [1]: active ingredient responsible for the whitening action

OCC(O)CO [G, glycerin]
TRP channel activation (net intracellular Ca2+ increase rates) ([2]; 10% by mass aqueous solution, FIG. 1-24): high TRP channel activation
TRP channel activation (net intracellular Ca2+ increase rates) ([2]; concentrations (% by mass) of the aqueous solutions changed, FIG. 1-25): higher TRP channel activation at high concentrations

O=C(C[n+]1ccsc1)c1ccccc1.[Br-] [PTB, N-phenacylthiazolium bromide]
cleavage activity to crosslinking structures formed by AGEs [3]: known to have cleavage activity to crosslinking structures formed by AGEs

C[C@@H]1CC[C@H]2[C@@H](C)C(=O)O[C@@H]3O[C@@]4(C)CC[C@@H]1[C@]32OO4 [artemisinin]
water solubility and liposolubility [4]: neither water-soluble nor liposoluble
